US9732060B2, “Aminotriazine derivative and pharmaceutical composition comprising the same” (Shionogi & Co., Ltd., priority 2013, dated 2017)

Target: human P2X3 receptor (Homo sapiens (Human), UniProt P56373)
Test: Evaluation of human P2X3 receptor inhibitory activity in the presence of human serum albumin (HSA)
Type: cell-based
Conditions: in the presence of 1% HSA (final concentration)
Experimental: Stably expressing cell line (C6BU-1 cell transfected with human P2X3 receptor gene (GenBank accession number Y07683; was used. The cells were seeded in a 96-well microtiter plate at a concentration of 8000 cells/well and cultured in the medium (7.0% fetal bovine serum, 7.0% horse serum, 1% antibiotic and antifungal, and 2.0% glutamine in DMEM) for one day at 37° C. under 5% carbon dioxide atmosphere. The medium was replaced with 4 μM Fluo-3-AM solution (20 mM HEPES, 137 mM NaCl, 5.37 mM KCl, 0.9 mM MgCl2, 1.26 mM CaCl2, 5.6 mM D-glucose, 2.5 mM probenecid, 0.5% BSA, and 0.04% Pluronic F-127, pH 7.5) and incubated at 37° C. under 5% dioxide carbon atmosphere for one hour. The plate was washed with washing buffer (20 mM HEPES, 137 mM NaCl, 5.27 mM KCl, 0.9 mM MgCl2, 1.26 mM CaCl2, 5.6 mM D-glucose, 2.5 mM probenecid, pH 7.5), and each well was added with 40 μL of this buffer. The plate was placed in High-Throughput Screening System FDSS 3000 (Hamamatsu Photonics K.K.). Measurement of fluorescence intensity by FDSS 3000 was started, and 40 μL of DMSO solutions containing 1% HSA (final concentrations) different concentrations of the test compound as prepared by dilution with dilution buffer (20 mM HEPES, 137 mM NaCl, 5.27 mM KCl, 0.9 mM MgCl2, 1.26 mM CaCl2, 5.6 mM D-glucose, 2.5 mM probenecid, 0.1% Pluronic F-127, pH 7.5) were dispensed to each well through the built-in automatic dispenser. Five minutes after, 50 nM ATP solution (50 μL) prepared by dilution with the dilution buffer was dispensed through the built-in automatic dispenser, and the measurement of fluorescence intensity was continued for 4 min. For each well, the specific maximum fluorescence intensity was calculated as the ratio of the maximum fluorescence intensity after addition of the ATP solution to the fluorescence intensity at the starting of the measurement. […] FDSS software (Hamamatsu Photonics K.K.) was used for calculation of the specific maximum fluorescence intensity. IC50 was calculated using Microsoft Excel (Microsoft Corporation) and XLfit (idbs Ltd.)

Sequence of human P2X3 receptor (P56373 whole entry): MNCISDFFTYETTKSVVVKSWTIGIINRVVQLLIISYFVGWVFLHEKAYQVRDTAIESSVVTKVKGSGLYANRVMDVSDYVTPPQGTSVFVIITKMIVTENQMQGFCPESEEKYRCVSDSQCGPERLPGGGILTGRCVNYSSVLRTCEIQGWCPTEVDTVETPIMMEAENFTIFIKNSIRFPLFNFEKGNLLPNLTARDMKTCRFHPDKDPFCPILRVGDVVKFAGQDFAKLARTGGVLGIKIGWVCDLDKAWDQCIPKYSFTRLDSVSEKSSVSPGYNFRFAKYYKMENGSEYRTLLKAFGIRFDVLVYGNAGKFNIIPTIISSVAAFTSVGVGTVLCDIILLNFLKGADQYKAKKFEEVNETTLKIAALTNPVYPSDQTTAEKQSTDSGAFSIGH

Cc1ccc(Cn2c(=O)n(C[C@H](C)C(=O)O)c(=O)[nH]/c2=N\c2ccc(Oc3ccc(F)cn3)cc2)cc1 [Compound I-040]
IC50: 18 nM
